The source of these data is publication PMC4286281, “Profiling of the Tox21 Chemical Collection for Mitochondrial Function to Identify Compounds that Acutely Decrease Mitochondrial Membrane Potential” (Environmental Health Perspectives, 2014).

Read-outs that look alike come from different tables or passages of the source.

The test system of the assay is mitochondrial membrane potential (MMP) in HepG2 cells. In words: qHTS mitochondrial membrane potential (MMP) assay with m-MPI dye, multiplexed with CellTiter-Glo cell viability. Particulars: for Emax: read-out: Efficacy; for MMP assay activity outcome (active antagonist / inactive / inconclusive): call from triplicate runs, multichannel readout and cell viability. Format: cell-based, human. On the technique in general: qHTS replaces the single test concentration by a dilution series.

[1] abbreviates: Homo sapiens, HepG2, 1 h, read-out: Potency.
Where [2] appears, read: Homo sapiens, HepG2 cells, 1 hr treatment, ratio 590 nm/535 nm, read-out: IC50 in the MMP assay (decrease of MMP).
Setting [3] is: Table S4, 20 most potent active compounds for the MMP screen, HepG2, 1 hr.
Setting [4] is: Table S4, 20 most potent active compounds for the MMP screen, HepG2, 1 hr, read-out: Potency.

Turning to `Nc1ccc(N)c2c1C(=O)c1ccccc1C2=O` [1,4-Diaminoanthraquinone], where the note is “Homo sapiens, HepG2, 1 h”, the Emax stood at 82%. The IC50 under setting [1] came to 33.1 nM.
`O=C1c2c(O)ccc([N+](=O)[O-])c2C(=O)c2c([N+](=O)[O-])ccc(O)c21` [1,8-Dihydroxy-4,5-dinitroanthraquinone] returned an Efficacy of 86.4%. Besides, the IC50 (read-out: Potency) stood at 73.4 nM.
`O=C(c1ccccc1O)c1ccccc1O` [2,2´-dihydroxybenzophenone]: under setting [2], the IC50 was determined as 14100 nM.
`Oc1c(Cl)c(Cl)c(Cl)c(Cl)c1Cl` [2,3,4,5,6-pentachlorophenol]: the “MMP assay activity outcome (active antagonist / inactive / inconclusive)” value (HepG2 cells, 1 hr treatment) is on record as “active”.
`NNc1nc(-c2ccc(N)cc2)cs1` [2-Hydrazino-4-(4-aminophenyl) thiazole] came in with an Efficacy under setting [3] of 82.5%. For the same compound, the IC50 under setting [4] came to 63.5 nM.
In the case of `COc1ccc(C(=O)c2ccccc2)c(O)c1` [2-hydroxy-4-methoxybenzophenone], the “MMP assay activity outcome (active antagonist / inactive / inconclusive)” value (HepG2 cells, 1 hr treatment) was “not active”.
For the compound `O=C(c1ccccc1)c1ccccc1O` [2-hydroxybenzophenone], the “MMP assay activity outcome (active antagonist / inactive / inconclusive)” value (HepG2 cells, 1 hr treatment) was “inactive”.
For the compound `O=C(c1ccccc1)c1cccc(O)c1` [3-hydroxybenzophenone], the IC50 under setting [2] came to 27700 nM.
As for `O=C(c1ccc(Cl)cc1)c1ccc(Cl)cc1` [4,4´-dichlorobenzophenone], for the setting “HepG2 cells, 1 hr treatment”, the “MMP assay activity outcome (active antagonist / inactive / inconclusive)” value was “inactive”.
As to `O=C(c1ccc(O)cc1)c1ccc(O)cc1` [4,4´-dihydoxybenzophenone], under “HepG2 cells, 1 hr treatment”, the “MMP assay activity outcome (active antagonist / inactive / inconclusive)” value is “inconclusive”.
Still for that read-out and setting: the result for `CC(C)(c1ccccc1)c1ccc(O)cc1` [4-(1-methyl-1-phenylethyl)phenol] reads “active”; that for `Nc1ccc(O)cc1` [4-aminophenol], “active”.
Take `O=C(c1ccccc1)c1ccc(O)cc1` [4-hydroxybenzophenone]: the IC50 under setting [2] was determined as 41300 nM.
In the case of `Cc1ccc(C(=O)c2ccccc2)cc1` [4-methylbenzophenone], the “MMP assay activity outcome (active antagonist / inactive / inconclusive)” value (HepG2 cells, 1 hr treatment) was “inactive”.
Still for that read-out and setting: under `O=C(c1ccccc1)c1ccccc1` [Benzophenone] stands “inactive”.
Consider `CCC[CH2][Sn]([CH2]CCC)([CH2]CCC)[O][Sn]([CH2]CCC)([CH2]CCC)[CH2]CCC` [Bis(tributyltin)oxide], for which the Efficacy was found to be 112.1% and the “Potency rank in the MMP screen” value is listed as “among the most potent compounds”. Further, for the setting “read-out: Potency”, the IC50 worked out at 91.1 nM.
For `Cl.N=C1C=CC(=C(c2ccc(N)cc2)c2ccc(N)cc2)C=C1` [C.I. Basic red 9 monohydrochloride], the “Potency rank in the MMP screen” value (HepG2 cells, 1 hr treatment) was “among the most potent compounds”. For the same compound, the Efficacy under setting [3] is 95.3%. Under setting [4], the IC50 amounted to 77 nM.
As to `CCOCn1c(-c2ccc(Cl)cc2)c(C#N)c(Br)c1C(F)(F)F` [Chlorfenapyr], the Emax (Homo sapiens, HepG2, 1 h) was 105%. For the same compound, under setting [1], the IC50 worked out at 74.1 nM.
The matching figures for `CCN1/C(=C/C=C/C=C/c2sc3ccccc3[n+]2CC)Sc2ccccc21` [Dithiazanine iodide]: 85.4% and 95.8 nM.
Consider `N#CC(C#N)=NNc1ccc(OC(F)(F)F)cc1` [FCCP, carbonyl cyanide 4-(trifluoromethoxy) phenylhydrazone, reference compound], for which the IC50 (Homo sapiens, HepG2, 1 h, read-out: IC50 of the positive control, decrease of MMP (mean ± SD)) came out at 110 ± 70 nM.
For `O=C1OC2(c3ccc(O)cc3Oc3cc(O)ccc32)c2ccccc21` [Fluorescein], the Emax (Homo sapiens, HepG2, 1 h) came out at 112%. Moreover, the IC50 under setting [1] stood at 105 nM.
In the case of `CN(C)c1ccc(C(=C2C=CC(=[N+](C)C)C=C2)c2ccc(N(C)C)cc2)cc1` [Gentian violet], the Emax (Homo sapiens, HepG2, 1 h) amounted to 91.9%. For the same compound, under setting [1], the IC50 was 78.8 nM.
For `O=C(Nc1ccc([N+](=O)[O-])cc1Cl)c1cc(Cl)ccc1O` [Niclosamide, reference compound], in that order: 97.7% and 26.3 nM.
